According to EP0182317A2, “Antineoplastic agent” (priority 1984, dated 1986):

What was measured:
Hela S3 cells = test: Inhibition of proliferation of incubated Hela S3 cells; type: cell-based; conditions: cells counted 3 days after addition of sample
Description: Effect of inhibiting the proliferation of incubated Hela S3 cells:
Hela S3 cells were placed on a culture medium (NEM containing 10 % of calf serum in a plastic dish. After 2 days, an organoselenium compound was added thereto. After containing the culture for additional 3 days, the number of the cells was counted. The proliferation inhibition rate was calculated according to the following formula: Inhibition rate (%) = 100 x (B-A) / (B-C) in which A is the final number of the cells counted on the third day after addition of the test sample, B is the final number of the cells in a sample- free control and C is the number of the cells counted immediately after the addition of the test sample. The value of IC50 (50 % inhibitory concentration) was determined from a graph showing the relationship between the concentration of the sample and the inhibition rate.

Ehrlich carcinoma = test: Antineoplastic effect on Ehrlich carcinoma in mice (survival, T/C percent); type: in vivo, male ICR mouse; conditions: in the abdomen once a day for 7 days
Description: Antineoplastic effect on Ehrlich carcinoma:
(§1) About 10^6/0.2 ml of Ehrlich carcinoma cells were placed in an abdomen of each male ICR mouse of 5 weeks old. On the next day the administration of the test sample in the abdomen was started. The test sample was given once a day for 7 days. For an untreated group, a physiological saline solution was given in the same manner as above. […] The T/C percent (T/C x 100) was determined from the average survival periods (days) of the treated group and control group. Further, 50 % lethal dose (LD50) was determined from the number of the mice which died of toxicity of the test samples administered.

[1] = 50 % lethal dose from toxic deaths in the Ehrlich carcinoma experiment; type: in vivo, male ICR mouse; conditions: mice bearing Ehrlich carcinoma, in the abdomen once a day for 7 days; 43200 min
Description: as §1

[2] = system: Salmonella typhimurium TA-98; test: Antimutagenic properties by Ames method with benzo[a]pyrene as mutagen; type: cell-based; conditions: for Number of colonies: B(a)P, S-9 mix; for inhibition rate: inhibition of the mutagenic effect of B(a)P
Description: The experiment was carried out by Ames method using Salmonella typhimurium TA-98 (hereinafter referred to as TA-98) as the test microorganism and benzo[a]pyrene (hereinafter referred to as B(a)P) as the mutagen.
0.1 ml of a solution containing […] of B(a)P and a suitable amount of a compound of the present invention was added to 0.5 ml of S-9 mix and 0.1 ml of a TA-98 suspension. The mixture was incubated at 37°C for 20 min. 2 ml of soft agar was added thereto, mixed well and then spread evenly on a glucose minimum agar medium plate. After the incubation at 37°C for 48 h, the number of colonies formed by the back mutation was counted.
The number of the colonies formed when neither B(a)P nor the compound of the present invention was used was employed as the background.
The antimutagenic properties was shown as the rate of inhibition of the mutagenic effect according to the following formula: [formula]

Molecule `O=[Se](Cl)Cl.c1ccncc1` [Selenium oxychloride·pyridine (1:1) complex] has an IC50 (Hela S3 cells) of 0.59 mg/L.

For “selenium oxychloride·pyridine complex [Compound 4]”, the “Antineoplastic effect (T/C percent)” value (Ehrlich carcinoma; dose 2.0 mg/kg, observation period 30 days) was 178.6%, the “Antineoplastic effect (T/C percent)” value (Ehrlich carcinoma; dose 2.0 mg/kg, observation period 60 days) was 218% and the “Antineoplastic effect (T/C percent)” value (Ehrlich carcinoma; dose 4.0 mg/kg, observation period 30 days) was 188.1%. The “Antineoplastic effect (T/C percent)” value (Ehrlich carcinoma; dose 4.0 mg/kg, observation period 60 days) was 270%, the “Antineoplastic effect (T/C percent)” value (Ehrlich carcinoma; dose 8.0 mg/kg, observation period 30 days) was 200.8% and the “Antineoplastic effect (T/C percent)” value (Ehrlich carcinoma; dose 8.0 mg/kg, observation period 60 days) was 297%. For the same molecule, the LD50 [1] was 8 - 16 mg/kg/day x7, the Number of colonies ([2]; dose 0.5 µg/plate) was 213 and the inhibition rate ([2]; dose 0.5 µg/plate) was 23.0%. For the same molecule, the Number of colonies ([2]; dose 1 µg/plate) was 192, the inhibition rate ([2]; dose 1 µg/plate) was 32.8% and the Number of colonies ([2]; dose 5 µg/plate) was 180. For the same molecule, the inhibition rate ([2]; dose 5 µg/plate) was 37.7%, the Number of colonies ([2]; dose 10 µg/plate) was 144 and the inhibition rate ([2]; dose 10 µg/plate) was 52.5%. It also gave a Number of colonies ([2]; dose 50 µg/plate) of 93, an inhibition rate ([2]; dose 50 µg/plate) of 73.4% and a Number of colonies ([2]; dose 100 µg/plate) of 87. For the same molecule, the inhibition rate ([2]; dose 100 µg/plate) was 75.8%, the Number of colonies ([2]; dose 500 µg/plate) was 41 and the inhibition rate ([2]; dose 500 µg/plate) was 94.7%.
